Experimental findings from patent US11191870B2, “Gel of sodium hyaluronate cross-linked by polyethylene glycol epoxy derivative for injection and preparation method thereof” (JENKEM TECHNOLOGY CO., LTD. (BEIJING), priority 2016, dated 2021) are described below.

In data set [1] the test system is cells L929. In words: Cytotoxicity experiment, extraction method, relative growth rate of cells. Particulars: absorbance, higher RCR = lower toxicity, crosslinker compounds.
Data set [2] relates to cells L929. In words: Median inhibitory concentration (IC50) of crosslinker compounds in cells L929. The class given is cell-based. The settings on record: Mus musculus, L929, read-out: IC50 (median inhibitory concentration). How it is done: A cytotoxicity experiment is achieved through detecting the propagation rate of cells referring to standards for biological evaluation-in vitro cell toxicity test of medical instruments. In the experiment, an extraction method is adopted, a cell toxicity test is performed by adopting cells L929, a relative growth rate (RCR) of the cells is calculated through assaying the absorbance value by using an enzyme-linked immunoassay instrument, and the higher the RCR, the better the biocompatibility and the lower the toxicity.

`C(COCCOCCOCCOCCOCCOCCOCCOCCOCCOCCOCCOCC1CO1)OCCOCCOCCOCCOCCOCCOCCOCCOCCOCCOCCOCCOCC1CO1` (stereo not drawn) [Ic, tetracosaethylene glycol diglycidyl ether]: the “RCR (relative growth rate of the cells), polyglycol diglycidyl ether crosslinkers” value (from here on “RCR (relative growth rate of the cells)”) with cells L929 [1] was found to be 89%. In addition, the IC50 in the data set on cells L929 [2] stood at 1880 µM.

`C(COCCOCCOCCOCCOCCOCC1CO1)OCCOCCOCCOCCOCCOCCOCC1CO1` (stereo not drawn) [Ib, dodecaethylene glycol diglycidyl ether]: in the data set with cells L929 [1], the “RCR (relative growth rate of the cells)” value came out at 89%. Besides, the IC50 in the data set on cells L929 [2] was found to be 2300 µM.

Consider `C(COCCOCC1CO1)OCCOCCOCC1CO1` (stereo not drawn) [Ia, tetraethylene glycol diglycidyl ether], for which the “RCR (relative growth rate of the cells)” value with cells L929 [1] was determined as 62%. Also, in the data set on cells L929 [2], the IC50 stood at 127 µM.
